# Experimental data from US12037419B2 (The Feinstein Institutes for Medical Research, priority 2016, dated 2024).
# Experiments:
# [1] = test system: allogeneic primary human CD4 T cells; test: Allogeneic mixed lymphocyte reaction; type: cell-based; details: HMGB1 3 μg/ml, C1q 25 μg/ml
# Experimental: Allogeneic CD4 T lymphocytes were isolated from blood using the Naïve CD4+ T cell isolation kit II (Miltenyi Biotec.) following the manufacturer's protocol. Cells were analyzed by flow cytometry (>90%). T cells were labeled with 5 μM Cell Trace Violet cell proliferation kit (Thermo Fisher Scientific), added to mono/macrophages at a density of 2×10^5 cells/well (a 1:2 ratio) in the presence of 1 μg/ml anti-CD3 (OKT3, eBioscience). Control cultures contained medium only or T cells or mono/macrophages alone. After 4 days, cells were stained with FITC-anti-CD4, PerCPCy 5.5-CD14, PE-LAIR-1 and fixable viability dyes (FVD, eBioscience) for 20 min at room temperature and subsequently washed and fixed. Live cells (FVD-negative cells) were then gated on CD4-positive, and cell trace violet was assessed by flow cytometry on a BD LSR II (BD Biosciences). Cell proliferation was analyzed as described (51). The % divided cells was defined as the probability that a cell has divided at least once from the original population. The division index was defined as the average number of cell divisions that a cell in the original population has undergone.
# [2] = test system: splenic monocytes of C57BL/6 wild type, RAGE deficient or LAIR-1 deficient mice; test: HMGB1-induced gene transcription in murine splenic monocytes (wild type, RAGE deficient, LAIR-1 deficient); type: cell-based, mouse
# Experimental: Monocyte isolation and stimulation: Human PBMCs were obtained following institutional guidelines of the Feinstein Institute for Medical Research (Feinstein) and isolated from blood of healthy donors by density centrifugation (New York Blood Bank). Monocytes were negatively enriched using a human monocyte enrichment kit (Stem Cell Technology). Purity of monocytes (≥90% CD11b+CD14+LAIR-1+) was determined by flow cytometry. […] Splenic murine monocytes from wild type mice, RAGE deficient or LAIR-1 conditional knockout mice were isolated using EasySep mouse monocyte enrichment kit (Stem Cell Technology). C57BL/6 mice, Lysozyme2-Cre transgenic mice were purchased from Jackson Laboratory. Myeloid specific LAIR-1 conditional knockout mice (Lysozyme2-Cre×LAIR fl/fl) were bred and maintained in our facility (Feinstein) under specific pathogen-free conditions. RAGE deficient mice (Department of Medicine, Karolinska Institute Stockholm, Sweden) were maintained at Feinstein. Eight-to ten weeks old male mice were used for experiments. All animal procedures were approved by the Feinstein Institutional Animal Care and Use Committee.
# RT-PCR analysis and primers: Total RNA was extracted from cells (1-2×10^6 cells per sample) with an RNeasy kit (Qiagen, Venlo, Limburg, Netherlands) and cDNA was generated using an iScript cDNA synthesis kit (Bio-Rad laboratories). Real Time-PCR was performed on a Light Cycler 480 II (Roche) using Light Cycler 480 master mix with primers (Applied Biosystems) for IFNα1 (Hs00256882), IFNα7 (mm02525960), MX1 (Hs00182073, mm01217998), IL-6 (Hs00985639, mm99999064), TNFα (Hs00174128, mm00443258), IL-12a (Hs00168405), Mer (Hs01031973), PDL-1 (Hs01125301), IL-10 (Hs00961622), CD163 (Hs00174705), HPRT1 (Hs99999909, mm01545399) and Polr2a (Hs00172187). The genes of interest were normalized to the expression of house keeping genes and were compared to a control condition with no treatment. The relative induction was calculated by 2-ΔΔCt.
# [3] = test system: RAGE, LAIR-1, SHP-1, NF-κB signaling pathway; test: Immunoprecipitation, Western blot, phospho-immunoreceptor array and p65 nuclear translocation in monocytes; type: cell-based, human
# Experimental: Immunofluorescence Microscopy: In situ proximal ligation assay was performed according to manufacturer's protocol (Duolink, Sigma). Following stimulation, human monocytes were washed three times with ice-cold PBS and were fixed with 4% (wt/vol) PFA for 1 hour at room temperature, seeded (2×10^5 cells) on slides using cytospin (Shandon), permeablized with chilled MeOH for 4 min and with PBS/0.1% (vol/vol) Triton X-100 and blocked for 1 h at room temperature. Cells were then incubated overnight with a primary antibody pair directed to rabbit anti-RAGE (ab3611, Abcam) and to mouse anti-LAIR-1 (BD Bioscience), respectively. The cells were incubated with corresponding PLA probes conjugated to oligonucleotides (mouse MINUS and rabbit PLUS), then followed by ligation and rolling circle amplification in close proximity. Images were acquired using AxioVision software and a confocal microscope (Olympus). Quantification was performed using Zen2 (Zeiss). […] Cells were washed three times with cold-PBS and fixed with 4% PFA and stained with PECy5-anti-human CD14 antibody (BD biosciences) or propidium iodide (PI). […] PI or DAPI was used for nuclear staining. […] After washing, cells were stained with Alexa Fluor 594 anti-rabbit IgG (Life Technologies), and mounted DAPI-containing medium. Images were acquired using an AxioImage Z1 (Zeiss) apotome enabled (Zeiss) Fluorescent-intensity analysis of the images was performed using Zen2 (Zeiss).
# Immunoprecipitation and Western blot. Total protein extracts were prepared as described (22). Monocytes (2-5×10^6 cells/ml) were washed in ice-cold PBS and lysed in 1×RIPA buffer containing complete protease inhibitor mixture (Roche) and phosphatase inhibitor (Pierce) for 1 h on ice. For immunoprecipitation, anti-LAIR-1 antibody (BD Bioscience) or anti-RAGE antibody (Abcam) was incubated with the lysate overnight at 4° C. prior to being incubated with protein G-dynabeads (Life Technologies). Proteins were then separated by SDS-PAGE, transferred to nitrocellulose or PVDF membranes, and immunoblotted with appropriate antibodies. Bands were detected using the ECL reagent (Thermo Scientific) or using the Odyssey Infrared Imaging system (LI-COR) to detect secondary antibodies conjugated with Infrared 680 or 800.
# Phospho-immunoreceptor array: Tyrosine phosphorylated LAIR-1 was determined by human phosphoimmunoreceptor array (Proteome Profiler Array; R&D systems) according to the manufacturer's protocol and as described (22). Phosphorylation levels of individual analytes were determined by average pixel density of duplicate spots; values were obtained after subtraction of background and were normalized to positive control spots.
# RAGE = target: T1, RAGE (Homo sapiens, UniProt Q15109); test: SPR assay of C1q and RAGE binding; details: read-out: KD of C1q and RAGE binding, 25° C., 1:1 binding ratio supposed
# T1 construct: purchased R&D Systems
# Experimental: Surface Plasmon Resonance analysis (SPR): For real-time binding interaction studies, a BIAcore T200 instrument (GE Healthcare) was used. […] A 1:1 mixture of N-hydroxysuccinimide and N-ethyl-N-(dimethyaminopropyl) carbodiimide was used to activate 2 flow-cells of the CMS chip. […] The analytes were diluted in 1×PBS+0.01% (vol/vol) tween-20 buffer. The analytes were sequentially injected at a flow rate of 30 μl/min for 60 s at 25° C. The KD was dertermined using the BIAcore evaluation software 2.0 (GE Healthcare) supposing a 1:1 binding ratio.
# [4] = HMGB1 3 μg/ml, C1q 25 μg/ml, 6 h
# T1 sequence (Q15109 23-342 limits assumed): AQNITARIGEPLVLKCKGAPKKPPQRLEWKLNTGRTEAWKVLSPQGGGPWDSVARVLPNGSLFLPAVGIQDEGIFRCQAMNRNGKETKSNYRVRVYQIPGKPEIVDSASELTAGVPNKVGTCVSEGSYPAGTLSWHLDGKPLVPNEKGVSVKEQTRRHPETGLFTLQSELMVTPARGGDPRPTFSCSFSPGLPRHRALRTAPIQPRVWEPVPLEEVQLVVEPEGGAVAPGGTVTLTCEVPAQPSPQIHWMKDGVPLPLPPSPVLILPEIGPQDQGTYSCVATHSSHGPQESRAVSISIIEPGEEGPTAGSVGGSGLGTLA
substance,measurement,setting,value
"C1q: C1q purified from pooled normal human sera, obtained from Complement Technology",stimulation of T cells by monocytes exposed to both HMGB1 and C1q,[1],poor stimulators of T cells
same,HMGB1-induced gene transcription in RAGE-deficient cells,[2]; [4],no change in HMGB1-induced gene transcription
same,HMGB1-induced proinflammatory cytokine gene transcription in wild type cells,[2]; [4],reduction in HMGB1-induced proinflammatory cytokine gene transcription
same,HMGB1-induced mRNA expression in LAIR-1 deficient monocytes,[2]; Lysozyme-Cre x floxed LAIR-1 mice,no inhibitory effect
same,phosphorylation of LAIR-1,[3],induces phosphorylation of LAIR-1
same,HMGB1-induced activation and nuclear translocation of NF-κB,"[3]; P-IKKα, p65, 1 h",inhibited the downstream activation and nuclear translocation of NF-κB
same,recruitment of SHP-1 to LAIR-1,[3]; both HMGB1 and C1q present,more SHP-1 is recruited to LAIR-1
same,HMGB1-induced phosphorylation of RAGE,[3]; in the presence of C1q,diminished
same,Kd,RAGE,855 nM
